Here are results for 26 compounds from patent publication US20100029620A1, “SUBSTITUTED TRIAZOLINE, TETRAZOLONE AND IMIDAZOLONE DERIVATIVES FOR USE AS A MEDICINE” (JANSSEN PHARMACEUTICA N.V., priority 2004, published 2010).

In test [1] the target is T1, human adrenergic-α2C receptor (Homo sapiens, UniProt P18825).
T1 construct: expressed in transfected cells; membrane preparation
T1 sequence (P18825 1-462): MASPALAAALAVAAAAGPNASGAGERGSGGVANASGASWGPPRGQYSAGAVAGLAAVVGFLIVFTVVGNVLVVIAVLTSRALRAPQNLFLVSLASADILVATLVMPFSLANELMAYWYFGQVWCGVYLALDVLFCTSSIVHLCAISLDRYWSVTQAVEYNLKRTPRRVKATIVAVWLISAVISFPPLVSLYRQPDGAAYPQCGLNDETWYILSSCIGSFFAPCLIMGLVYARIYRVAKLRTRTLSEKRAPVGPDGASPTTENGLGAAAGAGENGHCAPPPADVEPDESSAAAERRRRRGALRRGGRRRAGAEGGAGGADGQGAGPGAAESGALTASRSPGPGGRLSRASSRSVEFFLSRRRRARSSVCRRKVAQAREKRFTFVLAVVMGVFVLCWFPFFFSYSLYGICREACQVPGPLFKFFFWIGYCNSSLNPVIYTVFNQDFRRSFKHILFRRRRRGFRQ
The test can be described thus: Radioligand binding experiment for α2C-adrenoceptor ([3H]-raulwolscine competition, CHO cell membranes). As to conditions: [3H]raulwolscine 1 nM, membranes of CHO cells transfected with human α2C receptor; read-out: pIC50 α2C (converted). As to the method: (§1) The interaction of the compounds of Formula (I) with α2C-adrenoceptor receptors was assessed in in vitro radioligand binding experiments. In general, a low concentration of a radioligand with a high binding affinity for a particular receptor or transporter is incubated with a sample of a tissue preparation enriched in a particular receptor or transporter or with a preparation of cells expressing cloned human receptors in a buffered medium. During the incubation, the radioligand binds to the receptor or transporter. When equilibrium of binding is reached, the receptor bound radioactivity is separated from the non-bound radioactivity, and the receptor- or transporter-bound activity is counted. The interaction of the test compounds with the receptor is assessed in competition binding experiments. Various concentrations of the test compound are added to the incubation mixture containing the receptor- or transporter preparation and the radioligand. The test compound in proportion to its binding affinity and its concentration inhibits binding of the radioligand. The radioligand used for […] receptor binding was [^3H]-raulwolscine.
(§2) CHO cells, stabile transfected with human adrenergic-α2A-, -α2B or α2C receptor cDNA, were cultured in Dulbecco's Modified Eagle's Medium (DMEM)/Nutrient mixture Ham's F12 (ratio 1:1)(Gibco, Gent-Belgium) supplemented with 10% heat inactivated fetal calf serum (Life Technologies, Merelbeke-Belgium) and antibiotics (100 IU/ml penicillin G, 100 μg/ml streptomycin sulphate, 110 μg/ml pyruvic acid and 100 μg/ml L-glutamine). One day before collection, cells were induced with 5 mM sodiumbutyrate. Upon 80-90% of confluence, cells were scraped in phosphate buffered saline without Ca^2+ and Mg^2+ and collected by centrifugation at 1500×g for 10 min. The cells were homogenised in Tris-HCl 50 mM using an Ultraturrax homogenizer and centrifuged for 10 min at 23,500×g. The pellet was washed once by resuspension and rehomogenization and the final pellet was resuspended in Tris-HCl, divided in 1 ml aliquots and stored at −70° C.
(§3) Membranes were thawed and re-homogenized in incubation buffer (glycylglycine 25 mM, pH 8.0). In a total volume of 500 μl, 2-10 μg protein was incubated with [^3H]raulwolscine (NET-722) (New England Nuclear, USA) (1 nM final concentration) with or without competitor for 60 min at 25° C. followed by rapid filtration over GF/B filter using a Filtermate196 harvester (Packard, Meriden, Conn.). Filters were rinsed extensively with ice-cold rinsing buffer (Tris-HCl 50 mM pH 7.4). Filter-bound radioactivity was determined by scintillation counting in a Topcount (Packard, Meriden, CT) and results were expressed as counts per minute (cpm). Non-specific binding was determined in the presence of 1 μM oxymetazoline for hα2A- and hα2B receptors and 1 μM spiroxatrine for hα2C receptors.
(§4) Data from assays in the presence of compound were calculated as a percentage of total binding measured in the absence of test compound. Inhibition curves, plotting percent of total binding versus the log value of the concentration of the test compound, were automatically generated, and sigmoidal inhibition curves were fitted using non-linear regression. The pIC50 values of test compounds were derived from individual curves.

Test [2] concerns the target T2, human adrenergic-α2A receptor (Homo sapiens, UniProt P08913).
T2 construct: expressed in transfected cells; membrane preparation
T2 sequence (P08913 1-465): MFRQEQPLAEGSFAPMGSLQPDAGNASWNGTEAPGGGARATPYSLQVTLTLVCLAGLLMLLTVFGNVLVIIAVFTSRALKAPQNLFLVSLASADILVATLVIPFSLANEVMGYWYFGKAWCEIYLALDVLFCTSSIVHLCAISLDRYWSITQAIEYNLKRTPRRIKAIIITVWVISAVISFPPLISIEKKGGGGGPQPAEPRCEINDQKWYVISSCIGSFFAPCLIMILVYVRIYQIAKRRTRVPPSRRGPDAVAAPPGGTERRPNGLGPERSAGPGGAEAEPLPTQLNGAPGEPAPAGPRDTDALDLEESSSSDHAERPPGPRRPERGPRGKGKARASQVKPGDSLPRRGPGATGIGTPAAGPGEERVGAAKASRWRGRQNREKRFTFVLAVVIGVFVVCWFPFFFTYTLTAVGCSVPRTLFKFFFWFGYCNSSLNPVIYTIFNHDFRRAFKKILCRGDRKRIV
As to the kind of experiment: Radioligand binding experiment for α2A-adrenoceptor ([3H]-raulwolscine competition, CHO cell membranes). As to conditions: [3H]raulwolscine 1 nM, membranes of CHO cells transfected with human α2A receptor; read-out: pIC50 α2A (converted). On the procedure:
as §1, §2, §3, §4

In test [3] the target is T3, human adrenergic-α2B receptor (Homo sapiens, UniProt P18089).
T3 construct: expressed in transfected cells; membrane preparation
T3 sequence (P18089 1-450): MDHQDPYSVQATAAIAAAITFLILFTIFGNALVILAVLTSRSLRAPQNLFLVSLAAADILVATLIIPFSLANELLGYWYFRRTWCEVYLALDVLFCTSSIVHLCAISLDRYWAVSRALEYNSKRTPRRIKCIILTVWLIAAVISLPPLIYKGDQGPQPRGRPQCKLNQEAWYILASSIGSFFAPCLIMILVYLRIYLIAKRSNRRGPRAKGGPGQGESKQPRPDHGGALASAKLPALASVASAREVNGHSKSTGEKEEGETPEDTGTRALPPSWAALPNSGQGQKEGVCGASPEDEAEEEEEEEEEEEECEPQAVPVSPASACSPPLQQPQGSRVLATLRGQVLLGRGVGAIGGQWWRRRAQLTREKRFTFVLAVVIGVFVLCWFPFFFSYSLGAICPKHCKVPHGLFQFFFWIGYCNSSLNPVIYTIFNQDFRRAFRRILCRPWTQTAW
As to the kind of experiment: Radioligand binding experiment for α2B-adrenoceptor ([3H]-raulwolscine competition, CHO cell membranes). The following applies: [3H]raulwolscine 1 nM, membranes of CHO cells transfected with human α2B receptor; for IC50: read-out: pIC50 α2B (converted). As to the method: as §1, §2, §3, §4

`O=c1n(-c2ccc(CN3CCOCC3)cc2)cnn1CCNCCOc1ccccc1` [compound 24]: the figures for the IC50 in test [1] and in test [2] were 5.01 nM and 251 nM, respectively. In addition, in test [3], the “pIC50 α2B” value was 6.6.
As to `O=c1n(-c2ccc(CN3CCC(O)CC3)cc2)cnn1CCNCCOc1ccccc1` [compound 18], the IC50 in test [1] is 1.58 nM; in test [2], 50.1 nM; in test [3], 126 nM.
On to `CN(C)CCNc1ccc(-n2cnn(CCC3CCN(CCOc4ccccc4)CC3)c2=O)cc1` [compound 40], for which the IC50 in test [1] is 0.794 nM; in test [2], 3.98 nM; in test [3], 0.631 nM.
Turning to `CN1CCN(CCCNc2ccc(-n3cnn(CC4CCN(CCOc5ccccc5)CC4)c3=O)cc2)CC1` [compound 49], the IC50 was 3.98 nM in test [1], 63.1 nM in test [2] and 6.31 nM in test [3].
For `C/C(=C\c1ccccc1)CN1CCC(CCn2ncn(-c3ccc(NCCN(C)C)cc3)c2=O)CC1` [compound 41] the same measures were 1.58 nM, 6.31 nM and 1.26 nM.
Regarding `O=c1n(-c2ccc(CN3CCCC3)cc2)cnn1CCNCCOc1ccccc1` [compound 14], the figures for the IC50 in test [1], in test [2] and in test [3] were 1 nM, 50.1 nM and 79.4 nM, respectively.
As for `O=c1n(-c2ccc(CN3CCOCC3)cc2)cnn1CC1CCN(CCOc2ccccc2)CC1` [compound 73], the IC50 in test [1] was 1.58 nM; in test [2], 158 nM; in test [3] it was 39.8 nM.
Take `O=c1n(-c2ccc(CN3CCCC3)cc2)cnn1CC1CCN(CCOc2ccccc2)CC1` [compound 62]: the results for the IC50 in test [1], in test [2] and in test [3] were 0.501 nM, 39.8 nM and 10 nM, respectively.
As for `O=c1n(-c2ccc(N3CCN(Cc4ccccc4)CC3)cc2)cnn1CCNCCOc1ccccc1` [compound 3], the IC50 in test [1] is 15.8 nM; in test [2], 398 nM; in test [3] it was 251 nM.
Turning to `C/C(=C\c1ccccc1)CN1CCC(n2ncn(-c3ccc(CN)cc3)c2=O)CC1` [compound 34], the values for the IC50 in test [1], in test [2] and in test [3] were 10 nM, 39.8 nM and 50.1 nM, respectively.
As to `CN1CCN(c2ccc(-n3cnn(CC4CCN(CCOc5ccccc5)CC4)c3=O)cc2)CC1` [compound 51], the IC50 was 7.94 nM in test [1], 158 nM in test [2] and 7.94 nM in test [3].
For `CN(Cc1ccccc1)Cc1ccc(-n2cnn(CCNCCOc3ccccc3)c2=O)cc1` [compound 94], the IC50 was 3.16 nM in test [1], 31.6 nM in test [2] and 126 nM in test [3].
`CN(C)CCNc1ccc(-n2cnn(CCNCCOc3ccccc3)c2=O)cc1` [compound 87]: the IC50 in test [1] is 1.26 nM; in test [2], 31.6 nM. Moreover, in test [3], the “pIC50 α2B” value was determined as 7.5.
For the compound `O=c1n(-c2ccc(CN3CCOCC3)cc2)cnn1CCNCCOc1ccccc1` [compound 23], the IC50 in test [1] was 3.16 nM; in test [2], 158 nM; in test [3], 251 nM.
As to `C/C(=C\c1ccccc1)CN1CCC(n2ncn(-c3ccc(CN4C(=O)c5ccccc5C4=O)cc3)c2=O)CC1` [compound 109], the values for the IC50 in test [1], in test [2] and in test [3] were 2 nM, 31.6 nM and 39.8 nM, respectively.
Consider `CN(Cc1ccccc1)C(=O)Cn1cnn(CC2CCN(CCOc3ccccc3)CC2)c1=O` [compound 46], for which the figures for the IC50 in test [1], in test [2] and in test [3] were 6.31 nM, 126 nM and 158 nM, respectively.
For `CS(=O)(=O)N1CCc2cc(-n3cnn(CCNCCOc4ccccc4)c3=O)ccc2C1` [compound 101] the same measures were 7.94 nM, 631 nM and 251 nM.
Consider `O=c1n(-c2ccc(CN3CCN(c4ccccc4)CC3)cc2)cnn1CCNCCOc1ccccc1` [compound 2], for which the IC50 in test [1] is 25.1 nM; in test [2] it was 200 nM; in test [3] it was 200 nM.
Turning to `O=c1n(-c2ccc(N3CCOCC3)cc2)cnn1CC1CCN(CCOc2ccccc2)CC1` [compound 72], the IC50 was 7.94 nM in test [1], 158 nM in test [2] and 25.1 nM in test [3].
As for `O=c1n(CCNCCOc2ccccc2)cnn1CCN1CCCCC1` [compound 44], the values for the IC50 in test [1], in test [2] and in test [3] were 10 nM, 126 nM and 3980 nM, respectively.
For `O=c1n(-c2ccc(CN3CCC(N4CCCC4)CC3)cc2)cnn1CCNCCOc1ccccc1` [compound 21] the same measures were 1.58 nM, 39.8 nM and 79.4 nM.
In the case of `O=c1n(-c2ccc(N3CCC(N4CCCC4)CC3)cc2)cnn1CCNCCOc1ccccc1` [compound 20], the IC50 is 3.98 nM in test [1], 100 nM in test [2] and 100 nM in test [3].
As to `O=c1n(-c2ccc(CNCC3CCCO3)cc2)cnn1CCNCCOc1ccccc1` (stereo not drawn) [compound 93], the IC50 was 1.26 nM in test [1], 50.1 nM in test [2] and 126 nM in test [3].
Regarding `O=c1n(-c2ccc3c(c2)CCNC3)cnn1CCNCCOc1ccccc1` [compound 97], the IC50 is 2 nM in test [1], 50.1 nM in test [2] and 251 nM in test [3].
As to `C/C(=C\c1ccccc1)CN1CCC(n2cnn(CCCN3C(=O)c4ccccc4C3=O)c2=O)CC1` [compound 83], the values for the IC50 in test [1], in test [2] and in test [3] were 5.01 nM, 316 nM and 50.1 nM, respectively.
`O=c1n(-c2ccc3c(c2)CCN(CCN2CCCC2)C3)cnn1CCNCCOc1ccccc1` [compound 102]: the values for the IC50 in test [1], in test [2] and in test [3] were 3.16 nM, 79.4 nM and 251 nM, respectively.
